Test results published in PMC9815576, “Cell-surface protein YwfG of Lactococcus lactis binds to α-1,2-linked mannose” (PLOS ONE, 2023).
Several values for one entry are separate records, joined by “and”; a condition that tells them apart may be missing. Equal values may be shown once. Entries after “also recorded” stand apart in the source; their conditions may differ. Read-outs that look alike come from different tables or passages of the source.

Key:
[1] = molecular target: YwfG28–270 (L-type lectin domain of YwfG) (Lactococcus lactis subsp. lactis, UniProt S6FKX6); test: Isothermal titration calorimetry (ITC) of sugars, mannan and mannoproteins against YwfG28–270; type: binding, Lactococcus lactis subsp. lactis G50; conditions: for Interaction with YwfG28–270 observed by ITC: 100 μM YwfG28–270, 25°C; for ΔH, enthalpy change / ΔS, entropy change: YwfG28–270
Source text: (§1) A MicroCal iTC200 system (Malvern Panalytical, Almelo, Netherlands) was used to measure enthalpy changes associated with interactions between the YwfG variants and the following yeast cell-wall components: the monosaccharides D-glucose, D-galactose, D-mannose, D-fucose, N-acetyl-D-glucosamine (GlcNAc), and 2-(acetylamino)-2-deoxy-D-galactose (GalNAc) (Sigma-Aldrich); α-1,2-, α-1,3-, α-1,4-, and α-1,6-mannobiose (Dextra Laboratories, Reading, UK); mannan from S. cerevisiae (Sigma-Aldrich); and yeast mannoproteins.
(§2) A solution of YwfG variant (100 μM YwfG28–270, YwfG28–336, YwfG28–511, or MubR4 in 20 mM Tris-HCl [pH 7.5]) was placed in a 200-μL calorimeter cell, and test solution (10 mM for monosaccharides, 2 mM for monosaccharides and mannobioses, 10 mg mL^−1 for yeast mannan, OD280 1.0 for mannoproteins) was loaded into the injection syringe. The test solution was titrated into the sample cell as a sequence of 20 injections of 2-μL aliquots each. All experiments were performed at 25°C.

[2] = test system: YwfG28–336; test: ITC of sugars against YwfG28–336; type: binding, Lactococcus lactis subsp. lactis G50; conditions: 100 μM YwfG28–336, 25°C
Source text: as §1, §2

[3] = test system: YwfG28–511; test: ITC of sugars against YwfG28–511; type: binding, Lactococcus lactis subsp. lactis G50; conditions: 100 μM YwfG28–511, 25°C
Source text: as §1, §2

[4] = test system: yeast X2180-1A; test: Inhibition by sugars of yeast cell aggregation induced by YwfG variants; type: cell-based, Saccharomyces cerevisiae; conditions: sugar 1 mM as printed
Experimental: Saccharomyces cerevisiae X2180-1A was cultured in YPD medium to an OD600 of 0.6.

[5] = test system: MubR4 (YwfG residues 860–1034); test: ITC of monosaccharides against MubR4; type: binding, Lactococcus lactis subsp. lactis G50; conditions: 100 μM MubR4, 25°C
Source text: as §1, §2

[6] = test system: yeast cells; test: Aggregation of yeast cells by lactococcal cells; type: cell-based, Saccharomyces cerevisiae; conditions: 1 mM
Experimental: Lactococcal cells were cultured in CDMG and suspended in PBS to an OD600 of 1.0.

[7] = test system: legume (L)-type lectin–like module of SraP; design: method as in PMID 24901708; conditions: cited from earlier work
[8] = ITC, 25°C, 100 μM YwfG28–270 in 20 mM Tris-HCl pH 7.5, D-mannose: fixed stoichiometry (N = 1)
[9] = ITC, 25°C, 100 μM YwfG28–270 in 20 mM Tris-HCl pH 7.5, D-mannose: fixed stoichiometry (N = 1), read-out: KD, dissociation constant
[10] = ITC, 25°C, D-mannose: fixed stoichiometry (N = 1)

Chain of YwfG28–270 (L-type lectin domain of YwfG) (S6FKX6 entry or part of it): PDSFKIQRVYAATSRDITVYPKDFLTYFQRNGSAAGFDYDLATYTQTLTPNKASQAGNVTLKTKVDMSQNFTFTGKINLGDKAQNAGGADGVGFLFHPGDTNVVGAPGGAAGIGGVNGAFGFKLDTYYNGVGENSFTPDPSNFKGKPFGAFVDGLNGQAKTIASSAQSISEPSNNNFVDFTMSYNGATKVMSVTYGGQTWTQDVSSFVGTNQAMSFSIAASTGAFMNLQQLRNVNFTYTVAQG

## OC[C@H]1O[C@H](OC[C@H]2O[C@H](O)[C@@H](O)[C@@H](O)[C@@H]2O)[C@@H](O)[C@@H](O)[C@@H]1O [α-1,6-mannobiose]
[1]
  Interaction with YwfG28–270 observed by ITC: bound
[1]; [8]
  N (sites), stoichiometry: 1.21 ± 0.0839 sites
[1]; [9]
  Kd: 210 ± 13 µM
[1]; [10]
  ΔH, enthalpy change: -4.235 ± 0.3728 kcal/mol
  ΔS, entropy change: 2.62 cal/mol/deg
[2]
  Interaction with YwfG28–336 observed by ITC: No binding
[3]
  Interaction with YwfG28–511 observed by ITC: No binding
[4]
  Inhibition of aggregation induced by YwfG28–336: weakly inhibited
  Inhibition of aggregation induced by YwfG28–511: weakly inhibited

## CO[C@H]1O[C@H](CO)[C@@H](O)[C@H](O)[C@@H]1O [methyl α-D-mannoside]
[1]
  Interaction with YwfG28–270 observed by ITC: only combination of variant and monosaccharide that showed an interaction was YwfG28–270 with D-mannose
[2]
  Interaction with YwfG28–336 observed by ITC: only combination of variant and monosaccharide that showed an interaction was YwfG28–270 with D-mannose
[3]
  Interaction with YwfG28–511 observed by ITC: only combination of variant and monosaccharide that showed an interaction was YwfG28–270 with D-mannose
[5]
  Interaction with MubR4 observed by ITC: only combination of variant and monosaccharide that showed an interaction was YwfG28–270 with D-mannose
[4]
  Inhibition of aggregation induced by YwfG28–336: inhibited
  Inhibition of aggregation induced by YwfG28–511: not by YwfG28–270 or YwfG28–511 was inhibited
[6]
  Inhibition of aggregation induced by L. lactis G50: inhibited

## OC[C@H]1O[C@H](O[C@H]2[C@H](O)[C@H](O)C(O)O[C@@H]2CO)[C@@H](O)[C@@H](O)[C@@H]1O (stereo partly drawn) [α-1,4-mannobiose]
[1]
  Interaction with YwfG28–270 observed by ITC: bound
[1]; [8]
  N (sites), stoichiometry: 1.82 ± 0.171 sites
[1]; [9]
  Kd: 328 ± 91 µM
[1]; [10]
  ΔH, enthalpy change: -2.206 ± 0.3097 kcal/mol
  ΔS, entropy change: 9.55 cal/mol/deg
[2]
  Interaction with YwfG28–336 observed by ITC: No binding
[3]
  Interaction with YwfG28–511 observed by ITC: No binding
[4]
  Inhibition of aggregation induced by YwfG28–336: weakly inhibited
  Inhibition of aggregation induced by YwfG28–511: weakly inhibited

## CC(=O)N[C@H]1[C@H]([C@H](O)[C@H](O)CO)OC(O)(C(=O)O)C[C@@H]1O (some centres unmarked) [N-acetylneuraminic acid]
[7]
  Binding to the L-type lectin–like module of SraP: specifically binds

## C[C@H]1OC(O)[C@H](O)[C@@H](O)[C@H]1O (stereo partly drawn) [D-fucose]
[1]
  Interaction with YwfG28–270 observed by ITC: only combination of variant and monosaccharide that showed an interaction was YwfG28–270 with D-mannose
[2]
  Interaction with YwfG28–336 observed by ITC: only combination of variant and monosaccharide that showed an interaction was YwfG28–270 with D-mannose
[3]
  Interaction with YwfG28–511 observed by ITC: only combination of variant and monosaccharide that showed an interaction was YwfG28–270 with D-mannose
[5]
  Interaction with MubR4 observed by ITC: only combination of variant and monosaccharide that showed an interaction was YwfG28–270 with D-mannose

## CC(=O)N[C@@H](C=O)[C@@H](O)[C@@H](O)[C@H](O)CO [GalNAc, 2-(acetylamino)-2-deoxy-D-galactose]
[1]
  Interaction with YwfG28–270 observed by ITC: only combination of variant and monosaccharide that showed an interaction was YwfG28–270 with D-mannose
[2]
  Interaction with YwfG28–336 observed by ITC: only combination of variant and monosaccharide that showed an interaction was YwfG28–270 with D-mannose
[3]
  Interaction with YwfG28–511 observed by ITC: only combination of variant and monosaccharide that showed an interaction was YwfG28–270 with D-mannose
[5]
  Interaction with MubR4 observed by ITC: only combination of variant and monosaccharide that showed an interaction was YwfG28–270 with D-mannose

## OC[C@H]1OC(O)[C@@H](O)[C@@H](O)[C@@H]1O (stereo partly drawn) [D-mannose]
[1]
  Kd: 500 ± 37 µM
  Interaction with YwfG28–270 observed by ITC: only interaction observed; also recorded: showed an interaction
[1]; [8]
  N (sites), stoichiometry: (1.00) sites
[1]; [10]
  ΔH, enthalpy change: -2.098 ± 0.08359 kcal/mol
  ΔS, entropy change: 8.07 cal/mol/deg
[2]
  Interaction with YwfG28–336 observed by ITC: only combination of variant and monosaccharide that showed an interaction was YwfG28–270 with D-mannose
[3]
  Interaction with YwfG28–511 observed by ITC: only combination of variant and monosaccharide that showed an interaction was YwfG28–270 with D-mannose
[5]
  Interaction with MubR4 observed by ITC: only combination of variant and monosaccharide that showed an interaction was YwfG28–270 with D-mannose
[4]
  Inhibition of aggregation induced by YwfG28–336: inhibited
  Inhibition of aggregation induced by YwfG28–511: not by YwfG28–270 or YwfG28–511 was inhibited

## OC[C@H]1O[C@H](O[C@@H]2C(O)O[C@H](CO)[C@@H](O)[C@@H]2O)[C@@H](O)[C@@H](O)[C@@H]1O (stereo partly drawn) [α-1,2-mannobiose]
[1]
  Interaction with YwfG28–270 observed by ITC: bound
[1]; [8]
  N (sites), stoichiometry: 1.19 ± 0.0104 sites
[1]; [9]
  Kd: 34 µM and 34.4 µM
[1]; [10]
  ΔH, enthalpy change: -5.236 ± 0.06207 kcal/mol
  ΔS, entropy change: 2.86 cal/mol/deg
[2]
  Interaction with YwfG28–336 observed by ITC: No binding
[3]
  Interaction with YwfG28–511 observed by ITC: No binding
[4]
  Inhibition of aggregation induced by YwfG28–336: clearly inhibited
  Inhibition of aggregation induced by YwfG28–511: clearly inhibited

## OC[C@H]1OC(O)[C@H](O)[C@@H](O)[C@@H]1O (stereo partly drawn) [D-glucose]
[1]
  Interaction with YwfG28–270 observed by ITC: only combination of variant and monosaccharide that showed an interaction was YwfG28–270 with D-mannose
[2]
  Interaction with YwfG28–336 observed by ITC: only combination of variant and monosaccharide that showed an interaction was YwfG28–270 with D-mannose
[3]
  Interaction with YwfG28–511 observed by ITC: only combination of variant and monosaccharide that showed an interaction was YwfG28–270 with D-mannose
[5]
  Interaction with MubR4 observed by ITC: only combination of variant and monosaccharide that showed an interaction was YwfG28–270 with D-mannose

## O=C[C@H](O)[C@@H](O)[C@@H](O)[C@H](O)CO [D-galactose]
[1]
  Interaction with YwfG28–270 observed by ITC: only combination of variant and monosaccharide that showed an interaction was YwfG28–270 with D-mannose
[2]
  Interaction with YwfG28–336 observed by ITC: only combination of variant and monosaccharide that showed an interaction was YwfG28–270 with D-mannose
[3]
  Interaction with YwfG28–511 observed by ITC: only combination of variant and monosaccharide that showed an interaction was YwfG28–270 with D-mannose
[5]
  Interaction with MubR4 observed by ITC: only combination of variant and monosaccharide that showed an interaction was YwfG28–270 with D-mannose

## OC[C@H]1O[C@H](O[C@H]2[C@H](O)[C@@H](CO)OC(O)[C@H]2O)[C@@H](O)[C@@H](O)[C@@H]1O (stereo partly drawn) [α-1,3-mannobiose]
[1]
  Interaction with YwfG28–270 observed by ITC: bound
[1]; [8]
  N (sites), stoichiometry: 0.757 ± 0.148 sites
[1]; [9]
  Kd: 172 ± 21 µM
[1]; [10]
  ΔH, enthalpy change: -6.073 ± 1.387 kcal/mol
  ΔS, entropy change: −3.15 cal/mol/deg
[2]
  Interaction with YwfG28–336 observed by ITC: No binding
[3]
  Interaction with YwfG28–511 observed by ITC: No binding
[4]
  Inhibition of aggregation induced by YwfG28–336: weakly inhibited
  Inhibition of aggregation induced by YwfG28–511: weakly inhibited

## CC(=O)N[C@@H]1[C@@H](O)[C@H](O)[C@@H](CO)O[C@@H]1O [GlcNAc, N-acetyl-D-glucosamine]
[1]
  Interaction with YwfG28–270 observed by ITC: only combination of variant and monosaccharide that showed an interaction was YwfG28–270 with D-mannose
[2]
  Interaction with YwfG28–336 observed by ITC: only combination of variant and monosaccharide that showed an interaction was YwfG28–270 with D-mannose
[3]
  Interaction with YwfG28–511 observed by ITC: only combination of variant and monosaccharide that showed an interaction was YwfG28–270 with D-mannose
[5]
  Interaction with MubR4 observed by ITC: only combination of variant and monosaccharide that showed an interaction was YwfG28–270 with D-mannose
